Data published in patent US20060252807A1, “Novel ortho-terphenyl inhibitors of p38 kinase and methods of treating inflammatory disorders” (Kalypsys, Inc., priority 2005, published 2006).

Target: T1, active p38 alpha enzyme (Upstate Biotechnology) (Homo sapiens, UniProt Q16539)
T1 construct: purchased Upstate Biotechnology
Assay: p38α biochemical assay (ATP turnover, luminescent detection, Cambrex PKlight)
Conditions: p38α biochemical assay, Table 1 Biological Activity
Method: The p38α biochemical assay employed is based on measurement of total ATP turnover following enzyme incubation with substrate in the presence of ATP with the use of a luminescent detection reagent (Cambrex PKlight). The assays were performed in 1536-well white opaque plates.
The final volume was 7.5005 μL as prepared prepared from the addition of 5 ul of kinase reaction (p38 alpah+MapkapK2+ATP) with 0.0005 μL compound dissolved in DMSO, and 2.5 ul of the detection reagent. Assay buffer contains the following reagents to give final concentration in the assay: 200 mM Tris, 100 mM MgCl2, 1.5 mM EGTA, 4 mM CaCl2, 20 mM MOPS, 1 mM EDTA, 1% glycerol, 0.1% B-Mecaptoethanol, and 1 mg/ml BSA. Test compounds are pinned using proprietary pintool technology (Kalypsys, Inc) and delivered as […] amounts into the 5 ul mixture of active p38 alpha enzyme (Upstate Biotechnology) and MapkapK2 (Upstate Biotechnology) whole protein as a substrate for phosphorylation in the presence of 1.4 uM final concentration ATP. Reactions are incubated at 30C for 2 hours and detection reagent is added in 2.5 ul/well amounts. Assay is read using a Perkin Elmer Viewlux.

T1 sequence (Q16539 whole entry): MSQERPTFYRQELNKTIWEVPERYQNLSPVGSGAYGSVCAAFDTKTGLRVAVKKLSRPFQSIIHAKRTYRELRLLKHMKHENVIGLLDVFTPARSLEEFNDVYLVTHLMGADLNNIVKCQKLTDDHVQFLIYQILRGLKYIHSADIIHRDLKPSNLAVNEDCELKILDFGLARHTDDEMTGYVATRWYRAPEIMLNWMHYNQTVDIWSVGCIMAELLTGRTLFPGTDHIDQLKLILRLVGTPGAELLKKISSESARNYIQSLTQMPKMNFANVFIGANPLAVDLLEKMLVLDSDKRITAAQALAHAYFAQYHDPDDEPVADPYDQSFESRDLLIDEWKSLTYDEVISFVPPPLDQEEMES

IC50	SMILES
≤ 1 µM	CC(C)NC(=O)c1csc(-c2oc(CNC(=O)c3cccnc3Cl)nc2-c2ccc(F)cc2)n1 [Example 153]
> 1 µM	CC(C)NC(=O)c1csc(-c2oc(CNC(=O)c3ccnc(Cl)c3)nc2-c2ccc(F)cc2)n1 [Example 154]
> 1 µM	CC(C)NC(=O)c1csc(-c2oc(CNC(=O)c3cc(Cl)ccn3)nc2-c2ccc(F)cc2)n1 [Example 155]
≤ 1 µM	CC(C)NC(=O)c1csc(-c2oc(CNC(=O)c3ccncc3Cl)nc2-c2ccc(F)cc2)n1 [Example 156]
≤ 1 µM	CC(C)NC(=O)c1csc(-c2oc(CNC(=O)c3c(F)cccc3F)nc2-c2ccc(F)cc2)n1 [Example 157]
≤ 1 µM	CC(C)NC(=O)c1csc(-c2oc(CNC(=O)c3cccc(F)c3F)nc2-c2ccc(F)cc2)n1 [Example 158]
≤ 1 µM	CC(C)NC(=O)c1csc(-c2oc(CNC(=O)c3ccc(F)cc3F)nc2-c2ccc(F)cc2)n1 [Example 159]
> 1 µM	CC(C)NC(=O)c1csc(-c2oc(CNC(=O)c3cc(F)cc(F)c3)nc2-c2ccc(F)cc2)n1 [Example 160]
> 1 µM	CC(C)NC(=O)c1csc(-c2oc(CNC(=O)c3ccc(F)c(F)c3)nc2-c2ccc(F)cc2)n1 [Example 161]
> 1 µM	CC(CC(=O)NCc1nc(-c2ccc(F)cc2)c(-c2nc(C(=O)NC(C)C)cs2)o1)CC(C)(C)C (stereo not drawn) [Example 162]
> 1 µM	CC(C)NC(=O)c1csc(-c2oc(CNC(=O)c3cc4ccccc4o3)nc2-c2ccc(F)cc2)n1 [Example 163]
> 1 µM	CC(C)NC(=O)c1csc(-c2oc(CNC(=O)C3CCc4ccccc43)nc2-c2ccc(F)cc2)n1 (stereo not drawn) [Example 164]
> 1 µM	CC(C)NC(=O)c1csc(-c2oc(CNC(=O)C(Cl)(Cl)Cl)nc2-c2ccc(F)cc2)n1 [Example 165]
≤ 1 µM	CC(C)NC(=O)c1csc(-c2oc(CNC(=O)/C=C/c3ccccc3O)nc2-c2ccc(F)cc2)n1 [Example 166]
≤ 1 µM	CC(=O)c1ccc(C(=O)NCc2nc(-c3ccc(F)cc3)c(-c3nc(C(=O)NC(C)C)cs3)o2)cc1 [Example 167]
≤ 1 µM	CC(C)NC(=O)c1csc(-c2oc(CNC(=O)/C=C/c3cccc(O)c3)nc2-c2ccc(F)cc2)n1 [Example 168]
> 1 µM	CC(=O)c1cccc(C(=O)NCc2nc(-c3ccc(F)cc3)c(-c3nc(C(=O)NC(C)C)cs3)o2)c1 [Example 169]
> 1 µM	CC(=O)c1ccccc1C(=O)NCc1nc(-c2ccc(F)cc2)c(-c2nc(C(=O)NC(C)C)cs2)o1 [Example 170]
> 1 µM	CC(C)NC(=O)c1csc(-c2oc(CNC(=O)c3ccc(C(C)C)cc3)nc2-c2ccc(F)cc2)n1 [Example 171]
> 1 µM	Cc1ccccc1CCC(=O)NCc1nc(-c2ccc(F)cc2)c(-c2nc(C(=O)NC(C)C)cs2)o1 [Example 172]
> 1 µM	Cc1cccc(CCC(=O)NCc2nc(-c3ccc(F)cc3)c(-c3nc(C(=O)NC(C)C)cs3)o2)c1 [Example 173]
> 1 µM	CCC(C(=O)NCc1nc(-c2ccc(F)cc2)c(-c2nc(C(=O)NC(C)C)cs2)o1)c1ccccc1 (stereo not drawn) [Example 174]

IC50	SMILES
> 1 µM	Cc1cc(C)c(C(=O)NCc2nc(-c3ccc(F)cc3)c(-c3nc(C(=O)NC(C)C)cs3)o2)c(C)c1 [Example 175]
> 1 µM	CCCc1ccc(C(=O)NCc2nc(-c3ccc(F)cc3)c(-c3nc(C(=O)NC(C)C)cs3)o2)cc1 [Example 176]
> 1 µM	CC(C)NC(=O)c1csc(-c2oc(CNC(=O)c3ccc4c(c3)OCO4)nc2-c2ccc(F)cc2)n1 [Example 177]
≤ 1 µM	CC(C)NC(=O)c1csc(-c2oc(CNC(=O)/C=C/c3ccccc3F)nc2-c2ccc(F)cc2)n1 [Example 178]
> 1 µM	CCOc1ccccc1C(=O)NCc1nc(-c2ccc(F)cc2)c(-c2nc(C(=O)NC(C)C)cs2)o1 [Example 179]
> 1 µM	Cc1ccccc1OCC(=O)NCc1nc(-c2ccc(F)cc2)c(-c2nc(C(=O)NC(C)C)cs2)o1 [Example 180]
≤ 1 µM	CC(C)NC(=O)c1csc(-c2oc(CNC(=O)CCc3ccccc3O)nc2-c2ccc(F)cc2)n1 [Example 181]
≤ 1 µM	COc1ccccc1CC(=O)NCc1nc(-c2ccc(F)cc2)c(-c2nc(C(=O)NC(C)C)cs2)o1 [Example 182]
≤ 1 µM	CC(C)NC(=O)c1csc(-c2oc(CNC(=O)C(C)c3ccc(O)cc3)nc2-c2ccc(F)cc2)n1 (stereo not drawn) [Example 183]
≤ 1 µM	CC(C)NC(=O)c1csc(-c2oc(CNC(=O)c3ccccc3[N+](=O)[O-])nc2-c2ccc(F)cc2)n1 [Example 184]
> 1 µM	CC(C)NC(=O)c1csc(-c2oc(CNC(=O)c3cccc([N+](=O)[O-])c3)nc2-c2ccc(F)cc2)n1 [Example 185]
> 1 µM	COc1cccc(O)c1C(=O)NCc1nc(-c2ccc(F)cc2)c(-c2nc(C(=O)NC(C)C)cs2)o1 [Example 186]
> 1 µM	COc1ccc(O)c(C(=O)NCc2nc(-c3ccc(F)cc3)c(-c3nc(C(=O)NC(C)C)cs3)o2)c1 [Example 187]
> 1 µM	COc1ccc(C(=O)NCc2nc(-c3ccc(F)cc3)c(-c3nc(C(=O)NC(C)C)cs3)o2)c(O)c1 [Example 188]
> 1 µM	COc1ccc(C(=O)NCc2nc(-c3ccc(F)cc3)c(-c3nc(C(=O)NC(C)C)cs3)o2)cc1O [Example 189]
≤ 1 µM	CC(C)NC(=O)c1csc(-c2oc(CNC(=O)c3cc(O)c(O)c(O)c3)nc2-c2ccc(F)cc2)n1 [Example 190]
≤ 1 µM	CC(C)NC(=O)c1csc(-c2oc(CNC(=O)Cc3ccc(O)c(F)c3)nc2-c2ccc(F)cc2)n1 [Example 191]
> 1 µM	Cc1cc(C(=O)NCc2nc(-c3ccc(F)cc3)c(-c3nc(C(=O)NC(C)C)cs3)o2)cc(Cl)n1 [Example 192]
≤ 1 µM	CC(C)NC(=O)c1csc(-c2oc(CNC(=O)Cc3c(F)cccc3F)nc2-c2ccc(F)cc2)n1 [Example 193]
≤ 1 µM	CC(C)NC(=O)c1csc(-c2oc(CNC(=O)c3cccc4ccccc34)nc2-c2ccc(F)cc2)n1 [Example 194]
> 1 µM	CC(C)NC(=O)c1csc(-c2oc(CNC(=O)c3ccc(Cl)cc3O)nc2-c2ccc(F)cc2)n1 [Example 195]
> 1 µM	CC(C)NC(=O)c1csc(-c2oc(CNC(=O)c3cc(Cl)ccc3O)nc2-c2ccc(F)cc2)n1 [Example 196]

IC50	SMILES
≤ 1 µM	CC(C)NC(=O)c1csc(-c2oc(CNC(=O)c3ccc4ncccc4c3)nc2-c2ccc(F)cc2)n1 [Example 197]
≤ 1 µM	CC(C)NC(=O)c1csc(-c2oc(CNC(=O)c3cnc(O)c(Cl)c3)nc2-c2ccc(F)cc2)n1 [Example 198]
≤ 1 µM	CC(C)NC(=O)c1csc(-c2oc(CNC(=O)c3ccc(F)cc3Cl)nc2-c2ccc(F)cc2)n1 [Example 199]
≤ 1 µM	CC(C)NC(=O)c1csc(-c2oc(CNC(=O)c3c(F)cccc3Cl)nc2-c2ccc(F)cc2)n1 [Example 200]
> 1 µM	CC(C)NC(=O)c1csc(-c2oc(CNC(=O)CNC(=O)OC(C)(C)C)nc2-c2ccc(F)cc2)n1 [Example 201]
> 1 µM	Cc1c(C(=O)NCc2nc(-c3ccc(F)cc3)c(-c3nc(C(=O)NC(C)C)cs3)o2)oc2ccccc12 [Example 202]
> 1 µM	CC(C)NC(=O)c1csc(-c2oc(CNC(=O)CC3Cc4ccccc4C3)nc2-c2ccc(F)cc2)n1 [Example 203]
> 1 µM	CC(C)NC(=O)c1csc(-c2oc(CNC(=O)C3CCc4ccccc4C3)nc2-c2ccc(F)cc2)n1 (stereo not drawn) [Example 204]
> 1 µM	COc1ccccc1/C=C/C(=O)NCc1nc(-c2ccc(F)cc2)c(-c2nc(C(=O)NC(C)C)cs2)o1 [Example 205]
> 1 µM	CC(C)NC(=O)c1csc(-c2oc(CNC(=O)c3csc4ccccc34)nc2-c2ccc(F)cc2)n1 [Example 206]
≤ 1 µM	CC(C)NC(=O)c1csc(-c2oc(CNC(=O)c3cc4ccccc4s3)nc2-c2ccc(F)cc2)n1 [Example 207]
> 1 µM	CCCCc1ccc(C(=O)NCc2nc(-c3ccc(F)cc3)c(-c3nc(C(=O)NC(C)C)cs3)o2)cc1 [Example 208]
> 1 µM	CC(C)NC(=O)c1csc(-c2oc(CNC(=O)c3ccc(C(C)(C)C)cc3)nc2-c2ccc(F)cc2)n1 [Example 209]
> 1 µM	CC(C)NC(=O)c1csc(-c2oc(CNC(=O)c3ccc(N(C)C=O)cc3)nc2-c2ccc(F)cc2)n1 [Example 210]
> 1 µM	CC(=O)Nc1cccc(C(=O)NCc2nc(-c3ccc(F)cc3)c(-c3nc(C(=O)NC(C)C)cs3)o2)c1 [Example 211]
> 1 µM	CC(C)NC(=O)c1csc(-c2oc(CNC(=O)COc3ccccc3C=O)nc2-c2ccc(F)cc2)n1 [Example 212]
> 1 µM	CC(=O)Oc1ccc(C(=O)NCc2nc(-c3ccc(F)cc3)c(-c3nc(C(=O)NC(C)C)cs3)o2)cc1 [Example 213]
> 1 µM	COC(=O)c1ccc(C(=O)NCc2nc(-c3ccc(F)cc3)c(-c3nc(C(=O)NC(C)C)cs3)o2)cc1 [Example 214]
> 1 µM	CC(=O)Oc1cccc(C(=O)NCc2nc(-c3ccc(F)cc3)c(-c3nc(C(=O)NC(C)C)cs3)o2)c1 [Example 215]
> 1 µM	CC(=O)Oc1ccccc1C(=O)NCc1nc(-c2ccc(F)cc2)c(-c2nc(C(=O)NC(C)C)cs2)o1 [Example 216]
> 1 µM	CC(C)NC(=O)c1csc(-c2oc(CNC(=O)Cc3ccc4c(c3)OCO4)nc2-c2ccc(F)cc2)n1 [Example 217]
> 1 µM	CCCOc1ccc(C(=O)NCc2nc(-c3ccc(F)cc3)c(-c3nc(C(=O)NC(C)C)cs3)o2)cc1 [Example 218]
